Results reported in patent publication US20060039996A1, “Method for treating sepsis” (priority 2004, published 2006).

Tested on: B. Pseudomonas aeruginosa
Assay: Induced peritoneal sepsis, survival
Type: in vivo
Conditions: for Survival (animals alive): bacteria + Gentamycin 1.0 mg/ml i.p.
Protocol: Mice (C3H) were induced with B. Pseudomonas aeruginosa to have peritoneal sepsis, with resultant infection injury to the lung. Fox-Dewhurst, R., et al., Am. J Respir. Crit. Care Med., 155:2030-2040 (1997). Groups of animals (n=4 per group) were treated with doses of bacteria (108-1010 cfu/ml) in the peritoneum. Injection bacteria was prepared in saline at 10×10^7 cfu/ml. 0.3 ml of bacterial solution was injected into the peritoneal cavity. After three minutes, 0.3 ml of saline or 0.5 ml of electrolyzed saline solution was injected intraperitoneally. A group of animals was treated with Gentamycin as a positive control to compare the effectiveness of 25%, 50%, and 100% electrolyzed saline solutions. This group of animals was treated at the time of bacterial inoculation with Gentamycin at a concentration of 1.0 mg/ml intraperitoneally.
Six study groups of mice were studied: saline control, Gentamycin positive control, bacteria plus 25% electrolyzed saline solution, bacteria plus 50% electrolyzed saline solution, bacteria plus 100% electrolyzed saline solution, and bacteria plus saline.

Gentamycin
Survival (animals alive) (24 hrs, n=4): 4 | clinical appearance of animals (48 hours, Gentamicin 1.0 mg/ml i.p.): still normal with no sign of sickness | Survival (animals alive) (48 hrs, n=4): 4 | survival rate (72 hours, Gentamicin 1.0 mg/ml i.p.): 50% | animals died (72 hours, Gentamicin 1.0 mg/ml i.p., n=4): 2 | Survival (animals alive) (72 hrs, n=4): 2
